Assay results reported in the METLIN SMRT retention time set (Domingo-Almenara et al. 2019).

Assay: gradient 5% acetonitrile 3 min, to 50% in 2 min, to 85% in 15 min, held 3 min, 100 µL/min
Conditions: column: Zorbax Extend-C18 2.1 x 50 mm; eluents: water / acetonitrile, 0.1% formic acid
How it was run: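 Over 3 months, pure standards in mixtures of ~100 molecules were run by HPLC coupled to a quadrupole time-of-flight mass spectrometer in positive and negative ionization mode. The column was a Zorbax Extend-C18 (2.1 × 50 mm, 1.8 μm) at 100 μL/min, eluted with water and acetonitrile each holding 0.1% formic acid, with 40 μL dead and 900 μL dwell volumes. Retention time was determined from adduct peaks chosen by software and checked manually.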

| RP-LC retention time [s] | SMILES |
| --- | --- |
| 830 | Cc1ccc(NC(=O)c2cccc([N+](=O)[O-])c2)c(C)c1 |
| 1170 | CCCn1cc(C(=O)Nc2cc(OC)cc(OC)c2)c(=O)c2ccc(C)nc21 |
| 667 | O=C(NCC1CC1)c1cccc(OC2CN(Cc3cc4ccccc4nc3Cl)C2)c1 |
| 794 | Cn1cnc(S(=O)(=O)N2CC(Oc3ccc(-c4noc(C5CC5)n4)cc3)C2)c1 |
| 955 | Cn1cc2c3c(cccc31)CN(C(=O)c1cc(F)cc(F)c1)CC2 |
| 590 | CCCCC(=O)Nc1ccc2nc(N3CCN(CCC)CC3)cc(C(=O)O)c2c1 |
| 903 | CC(C)N1C(=O)C(C)(C(=O)Nc2ccc(Cl)cc2)Oc2cccnc21 (stereo unspecified) |
| 745 | Cc1cc(F)ccc1NC(=O)C1CCCN1S(=O)(=O)c1cc2c(cc1Cl)NC(=O)CO2 (stereo unspecified) |
| 805 | Cc1ccccc1Nc1c(-c2ccc(N3CCOCC3)cc2)nc2ccc(Cl)cn12 |
| 980 | CC(=O)N1CCC(C(=O)Nc2ccsc2-c2nc(-c3ccccc3)no2)CC1 |
| 1160 | CCCCn1c(=O)c2ccccc2n(Cc2nc(-c3cccc(OC)c3)no2)c1=O |
| 774 | O=C(Cn1c(=O)c2cccn2c2ccc(F)cc21)NCCc1ccco1 |
| 806 | CC(=O)Nc1onc(C)c1-c1ccc(C)c(S(=O)(=O)Nc2ccc(F)cc2C)c1 |
| 606 | COCC(=O)Nc1cc2c(cc1N(C)C)n(C)c(=O)c(=O)n2C |
| 721 | COc1ccc(-c2cn3cccnc3n2)cc1NS(=O)(=O)c1ccc(Br)cc1 |
| 892 | COc1ccc(-c2nnc(COc3ccc(NC(=O)c4ccsc4)cc3)o2)cc1 |
| 750 | O=C(Cc1ccsc1)NC1CCN(c2ccc(=O)n(CCOc3ccccc3)n2)C1 (stereo unspecified) |
| 804 | Cc1ccc(CNC(=O)C2CCCN(C(=O)c3[nH]c(C)cc3C)C2)cc1 (stereo unspecified) |
| 848 | CNC(=O)c1noc([C@@H]2CC(F)(F)CN2C(=O)CCC2CCCC2)n1 |
| 1230 | Cc1c(Cl)cccc1NC(=O)C1CCCN(c2nc3ccccc3nc2C(F)(F)F)C1 (stereo unspecified) |
| 749 | O=C(NCCC1CCN(C(=O)Nc2ccccc2)CC1)c1ccsc1 |
| 734 | O=C(N[C@H](Cc1ccccc1)C(=O)NCc1cscn1)c1ccccc1F |

Continued, compound first:

| SMILES | RP-LC retention time [s] |
| --- | --- |
| O=C(NCc1ccc(Cl)cc1)C1CCN(c2cncnc2N2CCOCC2)CC1 | 647 |
| O=C(CS(=O)Cc1cnn(-c2ccccc2)c1-n1cccc1)NCc1cccc(Br)c1 (stereo unspecified) | 830 |
| CCOc1ccc(C2Cn3nnc(-c4nc(-c5ccc(C)c(C)c5)no4)c3CO2)cc1 (stereo unspecified) | 1290 |
| Cc1cc2nn(CC(=O)NCc3ccccc3)c(=O)n2c(Nc2ccc(C)c(F)c2)n1 | 1060 |
| COC(=O)c1ncn2c1C(=O)N(c1cc(C)ccc1C)C(C)(C(=O)NC1CCCC1)C2 (stereo unspecified) | 718 |
| C=CC1=C(C(=O)O)N2C(=O)[C@@H](NC(=O)/C(=N/OCC(=O)O)c3csc(N)n3)[C@H]2SC1 | 644 |
| COc1cccc(NC(=O)Nc2ccc(Cl)c(N3CCCS3(=O)=O)c2)c1OC | 780 |
| Cn1nccc1-c1cccc(-c2noc(CNS(=O)(=O)c3ccc(Cl)cc3)n2)c1 | 902 |
| CCc1cc(=O)n(CC(=O)Nc2ccc(OC)c(Cl)c2)c(N2CCOCC2)n1 | 772 |
| Cc1cc(C(=O)N2CCCn3ccnc3C2C2CCCC2)n[nH]1 (stereo unspecified) | 584 |
| CC(C)n1cnc2cc(CNC(=O)C3CCCC3)ccc21 | 595 |
| COc1ccc(CNC(=O)C2(C)CCN(C(=O)Nc3ccccc3C(F)(F)F)CC2)cc1 | 834 |
| Cn1c(=O)n(C)c2cc(CNCCc3ccc(S(N)(=O)=O)cc3)ccc21 | 538 |
| O=C(CSc1ncnc2c1cnn2-c1ccc(Cl)cc1)NCc1ccco1 | 954 |
| CNC(=O)C1CCCN(c2nc3ncn(CC(=O)Nc4ccc(F)c(Cl)c4)c(=O)c3s2)C1 (stereo unspecified) | 693 |
| O=C(CCC1CCCC1)Nc1ccc(N2CCN(C3CCCC3)C2=O)nc1 | 884 |
| Cc1cc(Cl)ccc1S(=O)(=O)N1CCC(n2cnnc2C)CC1 | 745 |
| O=C(CCCN1C(=O)c2cccnc2Oc2ccccc21)N1CCN(c2ccccn2)CC1 | 605 |
| COc1ccc(C(=O)N2CCC3(C2)C(=O)N(C)c2ccc(OC)cc23)c(OC)c1 (stereo unspecified) | 760 |
| CCOCCCNC(=O)N1CCN(Cc2nc3cc(C(=O)N(C)C)ccc3n2CC)CC1 | 581 |
| O=C(CN1CCc2ccccc2C1C(=O)N1CCCC1)Nc1cccc(Br)c1 (stereo unspecified) | 921 |
| CCCCn1nc2c(S(=O)(=O)N3CCN(c4ccc(F)cc4)CC3)cccn2c1=O | 951 |

| SMILES | RP-LC retention time [s] |
| --- | --- |
| O=C(NCC(=O)N1CCCc2ccccc21)C1CCN(S(=O)(=O)c2ccc(Cl)cc2)CC1 | 914 |
| CCn1cnc2ccc(-c3noc(-c4cccc(F)c4)n3)cc21 | 769 |
| Cc1ccc(-n2nc3c(=O)n(CCCC(=O)NCCCN4CCCC4=O)nc(C)c3c2C)cc1 | 683 |
| Cc1nc([C@@H]2CN(C(=O)CCc3c(C)n[nH]c3C)C[C@H]2C(N)=O)n[nH]1 | 523 |
| COC(=O)c1c(NCc2cccc(Br)c2)c2cc(F)ccc2[nH]c1=O | 831 |
| O=C(Cn1nc2nc(Nc3ccc(F)cc3)ccn2c1=O)NC1CCCC1 | 701 |
| COc1ccc(CNC(=O)C2CCCN(c3nc4ccsc4c(=O)n3-c3ccc(F)cc3)C2)cc1 (stereo unspecified) | 857 |
| CCCN(CC1CCOC1)S(=O)(=O)c1ccccc1C (stereo unspecified) | 904 |
| COc1ccccc1C(CNC(=O)c1cc(=O)c2cc(Br)ccc2o1)N(C)C (stereo unspecified) | 651 |
| O=C(NCCOc1ccc(F)cc1)NCc1ccc(Cl)cc1 | 850 |
| CCC(C)NC(=O)Cn1nc(-c2ccccc2)c2cc(Cl)ccc21 (stereo unspecified) | 1060 |
| O=C(Cn1nc2c(Oc3cccc(F)c3)nccn2c1=O)Nc1ccc(F)cc1 | 849 |
| CCn1c(=O)c(C(=O)NCc2cccc(F)c2)nc2cccnc21 | 797 |
| CN1C(=O)c2cc(S(=O)(=O)Nc3ccc4c(c3)OCCO4)ccc2Oc2cccnc21 | 826 |
| COCCCN(CC(=O)N1CCc2sccc2C1COc1ccccc1)C(=O)C(C)C (stereo unspecified) | 892 |
| CCc1ccc(CCN2C(=O)c3ccccc3C2=O)nc1 | 667 |
| Cc1cc(C)cc(NC(=O)N2CCN(c3cnn4c(C)nnc4c3)CC2)c1 | 634 |
| O=C(Nc1ccc(C(=O)NCCCN2CCN(C3CCCCC3)CC2)cc1)C1=CSCCO1 | 579 |
| CC(=O)NCC(=O)N1CCCn2ccnc2C1C1CCCC1 (stereo unspecified) | 625 |
| O=C(NC1CCN(c2nnc3ccc(Cl)cn23)CC1)c1cccnc1 | 567 |
| O=c1oc2cc(O)cc(O)c2c2c1CCCC2 | 708 |
| Cc1ccc(Cn2nc3c(S(=O)(=O)N4CCCC4)cccn3c2=O)cc1 | 880 |
